pIC50: −log10 of the molar value. Numbered stars: 1 amine (or outer) side, 2 acyl side, 3 side chain; on linkers, the order of the positions; unused ones are H or OH. Bridge positions count the residues as written; N and C are the ends. Square brackets hold non-standard residues; d marks the D form. Peptide text beside a SMILES is read from it. X1 = CC(C)CCCCCCCCC[C@H](CC(=O)[*:1])O[*:2]
Columns and labels:
[1] = molecular target: T1, Putative silent information regulator 2 (Leishmania infantum, UniProt A0A6L0XH39); experiment: Inhibition of Leishmania infantum SIR2RP1
T1 sequence (A0A6L0XH39 whole entry): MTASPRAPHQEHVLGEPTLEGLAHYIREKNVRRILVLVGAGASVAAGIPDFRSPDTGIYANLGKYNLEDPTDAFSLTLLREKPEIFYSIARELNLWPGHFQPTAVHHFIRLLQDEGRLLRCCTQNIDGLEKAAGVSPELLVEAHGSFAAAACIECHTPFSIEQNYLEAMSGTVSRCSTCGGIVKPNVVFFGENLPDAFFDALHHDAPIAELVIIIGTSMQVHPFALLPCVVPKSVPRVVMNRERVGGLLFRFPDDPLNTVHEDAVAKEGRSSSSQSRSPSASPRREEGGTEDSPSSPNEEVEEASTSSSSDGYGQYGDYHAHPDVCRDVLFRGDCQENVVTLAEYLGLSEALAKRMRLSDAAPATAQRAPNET

[2] = Inhibition of Plasmodium falciparum NAD-dependent protein deacetylase Sir2A

| SMILES | pIC50 [1] | pIC50 [2] |
| --- | --- | --- |
| O=C1c2cccc3cccc(c23)C(=O)N1CCCNCCCCCCCCCNCCCN1C(=O)c2cccc3cccc(c23)C1=O [BNIPDANON] | 5.24 |  |
| O=C1c2cccc3cccc(c23)C(=O)N1CCCNCCCCCCCCNCCCN1C(=O)c2cccc3cccc(c23)C1=O [BNIPDAOCT] | 5.04 |  |
| NC(=O)c1cccnc1 [NIACINAMIDE] | 4.40 | 4.29 |
| CC(NC(=O)c1ccccc1/N=C/c1c(O)ccc2ccccc12)c1ccccc1 (stereo unspecified) [SIRTINOL] | 3.71 |  |
| CC(C)CCCCCCCCC[C@@H]1CC(=O)N[C@@H](CCC(=O)O)C(=O)N[C@@H](CC(C)C)C(=O)N[C@H](CC(C)C)C(=O)N[C@@H](C(C)C)C(=O)N[C@@H](CC(=O)O)C(=O)N[C@H](CC(C)C)C(=O)N[C@@H](CC(C)C)C(=O)O1 [SURFACTIN] (EL[dL]VD[dL]L; linker N-C via X1) | 4.45 |  |
